Assay results taken from the supplement of paper PMC10307832.

How the values were obtained:
Test in all cases: relative viability (nuclei count vs DMSO), 5 days (fraction); higher = more cells survive
[1] = compound: COC1=CC=C(C=C1)CN2C=CC3=C2C=C(C=C3)C(=O)NO + Cc1nc(NC(=O)N2CCC[C@H]2C(N)=O)sc1-c1ccnc(C(C)(C)C(F)(F)F)c1 [Alpelisib] (partner 2 µM)
Summary of the method: (§1)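 After 5 days of treatment, lung cancer cells in 1536-well plates were fixed and stained in a single step (final 0.05% Triton X-100, 1% formaldehyde, 1 ug/ml Hoechst) and their nuclei counted on 4× images. Treatment had been applied by pin tool the day after seeding as one drug alone or as a fixed anchor-drug dose with five library-drug doses (not always all listed) in √10 steps. Relative viability is the nuclei count of treated wells divided by that of vehicle wells, and values are medians of duplicate plates.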

[2] = compound: COC1=CC=C(C=C1)CN2C=CC3=C2C=C(C=C3)C(=O)NO + O=C(c1cc(Cc2n[nH]c(=O)c3ccccc23)ccc1F)N1CCN(C(=O)C2CC2)CC1 [Olaparib] (partner 8 µM)
Summary of the method: as §1

[3] = compound: C[C@]1(c2nc3c(C(N)=O)cccc3[nH]2)CCCN1 [Veliparib] + CC(C)C[C@H](NC(=O)[C@H](Cc1ccccc1)NC(=O)c1cnccn1)B(O)O [Bortezomib] (partner 0.002 µM)
Summary of the method: as §1

[4] = compound: C[C@]1(c2nc3c(C(N)=O)cccc3[nH]2)CCCN1 [Veliparib] + C[C@]1(O)C[C@@H](c2nc(-c3ccc4ccc(-c5ccccc5)nc4c3)c3c(N)nccn32)C1 [Linsitinib] (partner 1 µM)
Summary of the method: as §1

Cell Line	relative viability ([1]; first compound 0.08 µM)	relative viability ([1]; first compound 0.253 µM)	relative viability ([1]; first compound 0.8 µM)	relative viability ([1]; first compound 2.53 µM)	relative viability ([1]; first compound 8 µM)	relative viability ([2]; first compound 0.08 µM)	relative viability ([2]; first compound 0.253 µM)	relative viability ([2]; first compound 0.8 µM)	relative viability ([2]; first compound 2.53 µM)	relative viability ([2]; first compound 8 µM)	relative viability ([3]; first compound 0.06325 µM)	relative viability ([3]; first compound 0.2 µM)	relative viability ([3]; first compound 0.6325 µM)	relative viability ([3]; first compound 2 µM)	relative viability ([4]; first compound 0.06325 µM)	relative viability ([4]; first compound 0.2 µM)	relative viability ([4]; first compound 0.6325 µM)	relative viability ([4]; first compound 2 µM)	relative viability ([3]; first compound 0.02 µM)	relative viability ([4]; first compound 0.02 µM)
NCI-H1355	0.793	0.892	0.905	0.883	0.901	0.419	0.807	0.773	0.775	0.727	0.707	1.23	1.09	1.15	0.746	0.832	0.76	0.849		
NCI-H838		0.981	0.91	1.03	0.874	0.622	0.843	0.796	0.735	0.696	0.79	0.926	0.686	0.848	0.981	1.03	0.888	1.1	0.905	1.07
EPLC-272H	0.875	0.976	0.985	0.864	0.875		0.716	0.981	0.916	0.686	0.84	0.964	0.85	0.878	1.11	1.18	1.08	1.24		
EBC-1	0.817	0.842	0.848	0.815	0.737		0.656	0.748	0.695	0.633	0.539	0.527	0.479	0.57	0.807	0.723	0.793	0.97	0.615	0.771
NCI-H23	0.535	0.834	0.643	0.737	0.756	0.302	0.282	0.314	0.322	0.304	1.04	1.02	0.883	1.08	0.504	0.574	0.505	0.65	0.887	0.775
EMC-BAC-2	0.633	0.749	0.799	0.77	0.71	0.315		0.524	0.471	0.445	1.03	1.07	1.05	1.09	0.801	0.886	0.793	0.828	1.11	0.841
NCI-H2405	0.474	0.784	0.804	0.797	0.675	0.649		0.85	0.887	0.799	0.858	0.978	0.988	0.93	0.938	1.01	0.923	0.885	0.96	
NCI-H661		0.464	0.595	0.512	0.626		0.726	0.778	0.67	0.66	0.877	0.767	0.731	0.777	0.59	0.604	0.496	0.666	0.635	0.4
NCI-H650	1.01	1.16	1.05	1.03	0.892	0.351	0.417	0.452	0.353	0.418	0.675	0.64	0.744	0.565	0.716	0.864	0.875	0.448	0.635	0.766
IA-LM	0.609	0.743	0.732	0.852	0.776	0.755	0.846	0.954	0.902	0.833	0.748	0.794	0.83	0.813	0.494	0.538	0.544	0.708	0.831	0.411
HCC-15	0.74	0.989	0.898	0.93	0.853	0.635	0.71	0.729	0.846	0.728	1.02	0.991	0.932	0.984	0.84	0.909	0.83	0.921	0.781	0.928
PC-14	0.883	0.856	0.96	1.02	0.985	0.242	0.224	0.306	0.236	0.215	0.807	0.795	0.714	0.757	0.915	0.953	0.86	0.926	0.865	1.02
HCC-44	0.732	0.901	0.786	0.823	0.778	0.974	0.931	1.01	1	1.06	0.759	0.879	0.829	0.846	0.5	0.636	0.622	0.694	0.885	0.665
H3255	0.629	0.722	0.679	0.717	0.621	0.549	0.482	0.605	0.579	0.532	0.835	0.737	0.827	1.02	0.981	0.953	0.833	0.981	0.729	0.882
NCI-H2228	0.764	0.659	0.773	0.893	0.741	0.686	0.82	0.79	0.88	0.651	0.844	1	0.843	0.999	0.601	0.681	0.572	0.726	0.924	0.552
COR-L 105		0.93	1.04	0.942	0.929	0.558	0.743	0.808	0.715	0.706	0.633	0.548	0.783	0.83	0.86	0.982	0.915	0.915	0.735	0.984
